US9682033B2, “Methods of treating postherpetic neuralgia with a topical formulation of a spiro-oxindole compound” (Teva Pharmaceuticals International GmbH, priority 2015, dated 2017)
Entries after “also recorded” stand apart in the source; their conditions may differ. Like-named read-outs stand apart in the source and are kept apart here.

Key:
[1] = molecular target: NaV1.7 (Homo sapiens, UniProt Q15858); assay: In vitro electrophysiological studies: block of NaV1.7; assay type: biochemical; settings: fold greater for the inactivated state
Chain of NaV1.7 (Q15858 whole entry): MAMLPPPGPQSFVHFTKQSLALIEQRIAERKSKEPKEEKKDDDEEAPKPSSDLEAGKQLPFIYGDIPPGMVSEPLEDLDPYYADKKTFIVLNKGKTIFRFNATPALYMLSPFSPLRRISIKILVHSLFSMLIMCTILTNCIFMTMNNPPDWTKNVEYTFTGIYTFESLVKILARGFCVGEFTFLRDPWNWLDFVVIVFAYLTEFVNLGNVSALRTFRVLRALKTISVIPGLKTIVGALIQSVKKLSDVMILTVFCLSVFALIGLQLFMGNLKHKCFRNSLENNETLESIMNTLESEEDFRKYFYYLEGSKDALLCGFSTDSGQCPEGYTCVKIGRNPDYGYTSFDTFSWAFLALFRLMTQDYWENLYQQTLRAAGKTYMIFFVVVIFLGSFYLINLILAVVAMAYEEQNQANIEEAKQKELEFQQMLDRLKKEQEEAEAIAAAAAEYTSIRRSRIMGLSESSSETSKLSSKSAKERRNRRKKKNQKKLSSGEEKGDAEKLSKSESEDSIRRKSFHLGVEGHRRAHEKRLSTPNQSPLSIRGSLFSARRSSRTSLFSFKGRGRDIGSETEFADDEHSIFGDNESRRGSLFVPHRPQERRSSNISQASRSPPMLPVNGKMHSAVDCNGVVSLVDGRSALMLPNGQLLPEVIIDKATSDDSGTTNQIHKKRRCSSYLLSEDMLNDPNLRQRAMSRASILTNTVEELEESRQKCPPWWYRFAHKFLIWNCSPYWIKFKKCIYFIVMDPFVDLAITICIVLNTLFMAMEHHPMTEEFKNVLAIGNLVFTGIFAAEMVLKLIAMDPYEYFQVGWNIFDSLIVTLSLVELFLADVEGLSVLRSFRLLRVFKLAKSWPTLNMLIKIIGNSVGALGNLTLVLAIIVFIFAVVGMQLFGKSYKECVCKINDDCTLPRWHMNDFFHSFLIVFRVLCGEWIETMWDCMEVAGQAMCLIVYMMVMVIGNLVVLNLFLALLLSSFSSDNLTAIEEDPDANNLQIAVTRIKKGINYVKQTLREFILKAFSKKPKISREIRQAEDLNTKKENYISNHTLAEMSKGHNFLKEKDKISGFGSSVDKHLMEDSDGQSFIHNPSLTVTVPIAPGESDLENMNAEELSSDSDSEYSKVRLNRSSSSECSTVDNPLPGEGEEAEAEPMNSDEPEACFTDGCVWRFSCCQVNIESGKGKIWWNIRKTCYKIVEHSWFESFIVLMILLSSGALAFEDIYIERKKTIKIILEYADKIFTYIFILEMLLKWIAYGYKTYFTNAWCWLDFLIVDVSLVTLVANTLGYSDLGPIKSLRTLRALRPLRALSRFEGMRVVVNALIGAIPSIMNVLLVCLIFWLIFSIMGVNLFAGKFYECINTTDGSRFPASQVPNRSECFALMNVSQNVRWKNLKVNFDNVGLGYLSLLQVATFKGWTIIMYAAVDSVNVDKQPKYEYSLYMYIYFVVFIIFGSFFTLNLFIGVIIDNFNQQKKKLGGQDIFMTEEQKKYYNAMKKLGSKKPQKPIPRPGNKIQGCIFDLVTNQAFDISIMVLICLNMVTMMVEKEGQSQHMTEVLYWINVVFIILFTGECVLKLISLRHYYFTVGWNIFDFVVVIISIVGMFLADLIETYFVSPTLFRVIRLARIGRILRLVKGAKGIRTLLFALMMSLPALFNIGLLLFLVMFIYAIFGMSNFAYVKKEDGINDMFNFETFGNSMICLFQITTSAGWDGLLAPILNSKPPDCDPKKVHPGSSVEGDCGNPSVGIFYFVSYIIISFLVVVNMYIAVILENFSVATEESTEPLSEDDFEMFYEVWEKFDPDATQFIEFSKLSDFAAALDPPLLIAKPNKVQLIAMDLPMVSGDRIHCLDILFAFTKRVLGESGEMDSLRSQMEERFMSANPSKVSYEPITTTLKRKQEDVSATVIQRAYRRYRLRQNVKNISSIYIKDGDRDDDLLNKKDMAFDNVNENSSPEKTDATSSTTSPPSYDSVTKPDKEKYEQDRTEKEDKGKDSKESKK
Description: NaV1.7 is expressed primarily in the peripheral nervous system in both sensory and sympathetic neurons (Raymond, C. K., et al., op. cit.). Loss-of-function mutations in SCN9A (the gene encoding the alpha subunit of the NaV1.7 sodium channel) cause a human condition known as congenital indifference to pain characterized by an inability to perceive pain (Cox, J. J., et al., Nature (2006), 444:894-98; Goldberg, Y. P., et al., Clin Genet (2007), 71:311-9). Gain-of-function mutations in SCN9A are associated with inherited erythromelalgia (IEM) (Drenth, J. P., et al., J Invest Dermatology (2005), 124:1333-8), which is characterized by spontaneous or easily evoked severe pain. Furthermore, up to 29% of biopsy-proven cases of idiopathic small-fiber neuropathy manifesting mainly as distal severe pain (Faber, C. G., et al., Ann Neurol (2012), 71:26-39) are associated with gain-of-function NaV1.7 channel mutations.

[2] = tested on: complete Freund's adjuvant (CFA) model of inflammatory pain; assay: Complete Freund's adjuvant (CFA) model of inflammatory pain; assay type: in vivo; settings: rat, topical
[3] = Protein binding in rat serum; assay type: in vitro ADME
[4] = tested on: human hepatocytes; assay: In vitro metabolic stability in hepatocytes (human); assay type: in vitro ADME; settings: ^14C-spiro-oxindole compound
Description: (§1) A total of 8 metabolites were identified in samples (in vitro and in vivo) from rats, dogs, and humans. All metabolites found in humans were also found in the Good Laboratory Practice (GLP) toxicology species, the rat. Following oral administration of spiro-oxindole compound to humans, spiro-oxindole compound and 3 of its metabolites (M1, M5, and M6) were measurable. A similar metabolic profile was observed following topical administration to humans, albeit at much lower plasma concentrations, except metabolite M1 was not detected following human topical administration.

[5] = tested on: dog hepatocytes; assay: In vitro metabolic stability in hepatocytes (dog); assay type: in vitro ADME; settings: ^14C-spiro-oxindole compound
Description: as §1

[6] = tested on: rat hepatocytes; assay: In vitro metabolic stability in hepatocytes (rat); assay type: in vitro ADME; settings: ^14C-spiro-oxindole compound
Description: as §1

[7] = Metabolite identification in samples (in vitro and in vivo); assay type: in vitro ADME; settings: samples (in vitro and in vivo) from rats, dogs, and humans
Description: as §1

[8] = molecular target: 3A4 (CYP3A4) (Homo sapiens, UniProt P08684); assay: Reaction phenotyping with recombinant human CYP450 enzymes: CYP3A4; assay type: in vitro ADME
Chain of 3A4 (CYP3A4) (P08684 whole entry): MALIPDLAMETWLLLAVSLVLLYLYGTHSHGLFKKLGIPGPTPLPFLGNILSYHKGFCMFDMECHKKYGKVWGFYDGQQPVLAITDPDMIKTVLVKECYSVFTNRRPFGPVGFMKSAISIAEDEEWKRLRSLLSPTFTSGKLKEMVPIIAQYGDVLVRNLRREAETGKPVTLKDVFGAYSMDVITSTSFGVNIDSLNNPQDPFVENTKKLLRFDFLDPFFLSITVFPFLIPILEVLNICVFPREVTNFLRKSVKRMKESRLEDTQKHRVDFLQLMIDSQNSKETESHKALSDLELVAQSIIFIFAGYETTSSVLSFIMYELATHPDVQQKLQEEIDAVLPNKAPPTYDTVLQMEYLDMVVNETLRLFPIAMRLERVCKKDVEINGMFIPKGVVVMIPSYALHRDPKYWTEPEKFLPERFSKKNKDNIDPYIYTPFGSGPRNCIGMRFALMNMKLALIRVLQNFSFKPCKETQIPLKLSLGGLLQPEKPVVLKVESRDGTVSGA

[9] = tested on: several CYP450 enzymes including CYP3A4; assay: In vitro CYP450 inhibition (human liver microsomes); assay type: in vitro ADME
Description: However, the compound is also highly bound to constituents in human plasma, so distribution into hepatocytes may be hindered, reducing the inhibition potential. In vitro data using human cryopreserved hepatocytes have also shown that the spiro-oxindole compound metabolite (M3) is an inhibitor of CYP3A4 and CYP2C19. Therefore, certain medications that undergo major metabolism by CYP3A4 and CYP2C19 are excluded as concomitant medications during this study.

[10] = tested on: CYP3A4; assay: In vitro CYP3A4 induction; assay type: in vitro ADME
[11] = 4-week (GLP) repeat-dose dermal toxicity study in minipigs; settings: minipig, in vivo, topical or ocular, 30 mg/kg/day dermal, day 28; for AUC(0-t): read-out: AUC0-24 h
Procedure: Repeat-dose dermal toxicity of a pharmaceutical composition comprising the spiro-oxindole compound was evaluated in minipigs in a 7-day (non-GLP) dermal study and in a 4-week (GLP) dermal study with a 2-week recovery period. In addition, a dose range-finding (DRF) dermal study in minipigs was conducted to aid in dose selection for a 39-week dermal toxicity study in minipigs.
However, the vehicle ointment produced in all treatment groups transient, mild to moderate, and occasionally severe dermal irritation that returned to normal during the recovery period. This correlated with minimal epidermal hyperplasia observed microscopically in the treated skin across all groups.

[12] = tested on: bacterial reverse mutation; assay: Bacterial reverse mutation assay (GLP); assay type: cell-based
Description: (§2) The spiro-oxindole compound was not genotoxic in the standard battery of genotoxicity tests (GLP), including a bacterial reverse mutation assay, an in vitro chromosome aberration assay in cultured human lymphocytes, and an in vivo rat bone marrow micronucleus test.

[13] = tested on: rat bone marrow; assay: In vivo rat bone marrow micronucleus test (GLP)
Description: as §2

[14] = molecular target: CYP3A4 (Homo sapiens, UniProt P08684); assay: Drug-drug interaction study in healthy subjects: midazolam (CYP3A4 substrate) pharmacokinetics (Biological Example 5); settings: human, in vivo
Chain of CYP3A4 (Homo sapiens, UniProt P08684) (P08684 whole entry): as above
Description: (§3) This was a single center, open-label, 1-sequence drug-drug interaction study in 32 healthy adult male and female subjects. The study consisted of a 28-day screening period, a 10-day inpatient treatment period, and a follow-up visit. Subjects meeting the study inclusion/exclusion requirements were admitted to the clinical research unit on day −1 and were confined until day 10.
(§4) Blood samples were collected for the assessment of the pharmacokinetics of midazolam and omeprazole.
(§5) The primary pharmacokinetic endpoints were the geometric mean ratios (90% confidence intervals [CIs]) for Cmax, AUC0-t, and AUC0-inf for midazolam and omeprazole on day 9 versus day 1.
(§6) Blood samples were collected for the assessment of the pharmacokinetics of the major metabolites of midazolam (1-OH-midazolam) and omeprazole (5-OH-omeprazole), and for the spiro-oxindole compound. Further secondary pharmacokinetic variables included Cmax, tmax, AUC0-t, AUC0-inf, CL/F, λz, t1/2, and % AUCext for 1-OH-midazolam and 5-OH-omeprazole, on days 1 and 9, and Cmax, morning predose concentrations (Ctrough), average plasma concentration over the dosing interval (Cave), and area under the plasma concentration-time curve over the dosing interval (AUC0-τ) were presented for the spiro-oxindole compound.
(§7) Descriptive statistics (n, mean, geometric mean, standard deviation [SD], % CV, median, minimum, and maximum) were used to summarize plasma midazolam, omeprazole and their metabolites, and the spiro-oxindole compound concentration for all subjects overall at each scheduled time point. Descriptive statistics (as noted above) were also used to summarize plasma omeprazole, 5-OH-omeprazole, and the spiro-oxindole compound concentration for all subjects overall by CYP2C19 genotype at each scheduled time point. Pharmacokinetic parameters were derived by noncompartmental analysis. Descriptive statistics (as noted above) were used to summarize the calculated pharmacokinetic parameters for midazolam, omeprazole and their metabolites, and the spiro-oxindole compound by treatment for all subjects. Descriptive statistics (as noted above) were also used to summarize the calculated pharmacokinetic parameters for omeprazole, 5-OH-omeprazole, and the spiro-oxindole compound by treatment and CYP2C19 genotype. Plots of geometric mean and individual plasma concentrations and of select pharmacokinetic parameters for midazolam, omeprazole and their metabolites and the spiro-oxindole compound at select sampling times were provided. Additionally, plots of individual select pharmacokinetic parameters by CYP2C19 phenotype for omeprazole at select time points were provided.

[15] = tested on: CYP2C19; assay: clinical; settings: human, in vivo
Description: as §3, §4, §5, §6, §7

Which “potency of block against NaV1.7, inactivated state compared with resting state” value [1] does the source give for `O=C1N(Cc2ccc(C(F)(F)F)o2)c2ccccc2[C@]12COc1cc3c(cc12)OCO3` [spiro-oxindole compound, (S)-1′-{[5-(trifluoromethyl)furan-2-yl]methyl}spiro[furo[2,3-f][1,3]benzodioxole-7,3′-indol]-2′(1′H)-one] here?
The value was “approximately 220 fold”.

And the “minimum effective dose associated with pain relief” value [2]?
Its value is 2 % (w/w).

What about the protein bound [3] of the same compound?
The protein bound was 99.6%.

And the “in vitro metabolic stability in hepatocytes” value (“in vitro metabolic stability” below) [4]?
The value was 80%.

What about the “in vitro metabolic stability” value [5] of the same compound?
Its value is 61%.

What about the “in vitro metabolic stability” value [6] of the same compound?
Its value is 16%.

What about the “total number of metabolites identified” value [7] of the same compound?
Its value is 8 metabolites.

And the “contribution to spiro-oxindole compound metabolism” value [8]?
The value was “major contributors”.

What about the “inhibition of CYP450 enzymes” value [9] of the same compound?
The value was “may inhibit several CYP450 enzymes including CYP3A4; also recorded: inhibitor of several CYP450 enzymes”.

What about the “induction of CYP3A4” value [10] of the same compound?
The value was “may also be a strong inducer of CYP3A4 with an activation potency similar to rifampicin”.

And the Cmax ([11]; female minipigs)?
Its Cmax is 20 ng/mL.

And the AUC(0-t) ([11]; female minipigs)?
The AUC(0-t) was 382 ng·h/mL.

And the Cmax ([11]; male minipigs)?
Its Cmax is 21 ng/mL.

And the AUC(0-t) ([11]; male minipigs)?
Its AUC(0-t) is 365 ng·h/mL.

And the genotoxicity [12]?
Its genotoxicity is “not genotoxic”.

And the genotoxicity [13]?
Its genotoxicity is “not genotoxic”.

What about the “effect on midazolam pharmacokinetics (in words)” value [14] of the same compound?
Its value is “no relevant effect on midazolam pharmacokinetics”.

And the “Geometric LS mean ration (%) (test/reference), omeprazole AUC0-inf” value ([15]; both)?
The value was 105.751%.

And the “Geometric LS mean ration (%) (test/reference), omeprazole AUC0-t” value ([15]; both)?
Its value is 101.553%.

And the “Geometric LS mean ration (%) (test/reference), omeprazole Cmax” value ([15]; both)?
The value was 98.939%.

What about the “effect on systemic exposure to 5-OH-omeprazole (in words)” value ([15]; both) of the same compound?
The value was “no relevant effect on systemic exposure to 5-OH-omeprazole”.

What about the “effect on omeprazole pharmacokinetics (in words)” value [15] of the same compound?
The value was “no relevant effect on omeprazole pharmacokinetics”.
